Assay results: patent US20240270762A1, “PENICILLIN-BINDING PROTEIN INHIBITORS” (priority 2021, published 2024)
≈ marks a conversion by molar mass, not a printed value.

Assays:
A. baumannii 1258916 = test: microbe, parasite or virus in culture; type: cell-based, Acinetobacter baumannii; settings: Acinetobacter baumannii, 1258916, read-out: MIC, A. baumannii 1258916
[1] = tested on: B. thailandensis ATCC 700388; test: microbe, parasite or virus in culture; type: cell-based; settings: Burkholderia thailandensis, ATCC700388, read-out: Minimum inhibitory concentration (MIC), B. thailandensis ATCC 700388
P. aeruginosa CDC-0054 = test: microbe, parasite or virus in culture; type: cell-based; settings: Pseudomonas aeruginosa, CDC0054, read-out: Minimum inhibitory concentration, P. aeruginosa CDC-0054
P. aeruginosa CDC-0110 = test: microbe, parasite or virus in culture; type: cell-based; settings: Pseudomonas aeruginosa, CDC0110, read-out: Minimum inhibitory concentration, P. aeruginosa CDC-0110
P. aeruginosa CDC-0095 = test: microbe, parasite or virus in culture; type: cell-based; settings: Pseudomonas aeruginosa, CDC0095, read-out: Minimum inhibitory concentration, P. aeruginosa CDC-0095
[2] = tested on: P. aeruginosa (ΔmexAB-oprM); test: Broth microdilution MIC in iron-depleted CAMHB (IDM); type: cell-based; settings: Pseudomonas aeruginosa; iron-depleted CAMHB (IDM); […]; read-out: Minimum inhibitory concentration, P. aeruginosa ΔmexAB-oprM
P. aeruginosa CDC-0090 = test: microbe, parasite or virus in culture; type: cell-based; settings: Pseudomonas aeruginosa, CDC0090, read-out: Minimum inhibitory concentration, P. aeruginosa CDC-0090
A. baumannii CDC-0083 = test: microbe, parasite or virus in culture; type: cell-based; settings: Acinetobacter baumannii, CDC0083, read-out: MIC, A. baumannii CDC-0083
A. baumannii ATCC 19606 = test: microbe, parasite or virus in culture; type: cell-based; settings: Acinetobacter baumannii, ATCC19606, read-out: MIC, A. baumannii ATCC 19606
P. aeruginosa ATCC 35151 = test: microbe, parasite or virus in culture; type: cell-based; settings: Pseudomonas aeruginosa, ATCC35151, read-out: Minimum inhibitory concentration, P. aeruginosa ATCC 35151
A. baumannii ATCC 17978 = test: microbe, parasite or virus in culture; type: cell-based; settings: Acinetobacter baumannii, ATCC17978, read-out: MIC, A. baumannii ATCC 17978
A. baumannii CDC-0045 = test: microbe, parasite or virus in culture; type: cell-based; settings: Acinetobacter baumannii, CDC0045, read-out: MIC, A. baumannii CDC-0045
A. baumannii CDC-0033 = test: microbe, parasite or virus in culture; type: cell-based; settings: Acinetobacter baumannii, CDC0033, read-out: MIC, A. baumannii CDC-0033
[3] = tested on: B. humptydooensis ATCC BAA-2767; test: microbe, parasite or virus in culture; type: cell-based; settings: Burkholderia humptydooensis, ATCCBAA2767, read-out: Minimum inhibitory concentration (MIC), B. humptydooensis ATCC BAA-2767

Row | Compound | MIC (A. baumannii 1258916) [µg/mL] | MIC [1] [µg/mL] | MIC (P. aeruginosa CDC-0054) [µg/mL] | MIC (P. aeruginosa CDC-0110) [µg/mL] | MIC (P. aeruginosa CDC-0095) [µg/mL] | MIC [2] [µg/mL] | MIC (P. aeruginosa CDC-0090) [µg/mL] | MIC (A. baumannii CDC-0083) [µg/mL] | MIC (A. baumannii ATCC 19606) [µg/mL] | MIC (P. aeruginosa ATCC 35151) [µg/mL] | MIC (A. baumannii ATCC 17978) [µg/mL] | MIC (A. baumannii CDC-0045) [µg/mL] | MIC (A. baumannii CDC-0033) [µg/mL] | MIC [3] [µg/mL]
1 | O=C(NCCCN1CCN(C(=O)N[C@H](C(=O)N[C@H]2Cc3ccc(F)c(C(=O)O)c3OB2O)c2cc(F)c(O)c(O)c2Cl)C(=O)C1=O)c1cc(F)c(O)cc1F (single isomer, unassigned) [Example 472] | 8 to 16 (≈ 10.1 to 20.1 µM) | 2 to 4 (≈ 2.51 to 5.03 µM) | < 1 | < 1 | < 1 | < 1 | 2 to 4 (≈ 2.51 to 5.03 µM) | > 128 | 2 to 4 (≈ 2.51 to 5.03 µM) | < 1 | < 1 | 8 to 16 (≈ 10.1 to 20.1 µM) | 8 to 16 (≈ 10.1 to 20.1 µM) | 2 to 4 (≈ 2.51 to 5.03 µM)
2 | O=C(NCCCN1CCN(C(=O)N[C@H](C(=O)N[C@H]2Cc3ccc(F)c(C(=O)O)c3OB2O)c2cc(F)c(O)c(O)c2Cl)C(=O)C1=O)c1ccnc(F)c1F [Example 299, (R)-3-((S)-2-(2-chloro-5-fluoro-3,4-dihydroxyphenyl)-2-(4-(3-(2,3-difluoroisonicotinamido)propyl)-2,3-dioxopiperazine-1-carboxamido)acetamido)-7-fluoro-2-hydroxy-3,4-dihydro-2H-benzo[e][1,2]oxaborinine-8-carboxylic acid] | 8 to 16 (≈ 10.2 to 20.5 µM) | > 128 | 2 to 4 (≈ 2.56 to 5.12 µM) | 8 to 16 (≈ 10.2 to 20.5 µM) | 2 to 4 (≈ 2.56 to 5.12 µM) | 2 to 4 (≈ 2.56 to 5.12 µM) | 2 to 4 (≈ 2.56 to 5.12 µM) | 2 to 4 (≈ 2.56 to 5.12 µM) | 2 to 4 (≈ 2.56 to 5.12 µM) | < 1 | < 1 | > 128 | 8 to 16 (≈ 10.2 to 20.5 µM) | > 128
3 | O=C(NCCCN1CCN(C(=O)N[C@H](C(=O)N[C@H]2Cc3ccc(F)c(C(=O)O)c3OB2O)c2cc(F)c(O)c(O)c2Cl)C1=O)Nc1ccc(O)cc1 [Example 283, (R)-3-((S)-2-(2-chloro-5-fluoro-3,4-dihydroxyphenyl)-2-(3-(3-(3-(4-hydroxyphenyl)ureido)propyl)-2-oxoimidazolidine-1-carboxamido)acetamido)-7-fluoro-2-hydroxy-3,4-dihydro-2H-benzo[e][1,2]oxaborinine-8-carboxylic acid] | > 128 | > 128 | > 128 | > 128 | > 128 | > 128 | > 128 | > 128 | > 128 | 2 to 4 (≈ 2.68 to 5.36 µM) | > 128 | > 128 | > 128 | > 128
4 | O=C(NCCCS(=O)(=O)N1CCN(C(=O)NC(C(=O)N[C@H]2Cc3ccc(F)c(C(=O)O)c3OB2O)c2cc(F)c(O)c(O)c2Cl)C1=O)Nc1ccncc1 (stereo partly drawn) [Example 291, (3R)-3-(2-(2-chloro-5-fluoro-3,4-dihydroxyphenyl)-2-(2-oxo-3-((3-(3-(pyridin-4-yl)ureido)propyl)sulfonyl)imidazolidine-1-carboxamido)acetamido)-7-fluoro-2-hydroxy-3,4-dihydro-2H-benzo[e][1,2]oxaborinine-8-carboxylic acid] | < 1 | 2 to 4 (≈ 2.51 to 5.03 µM) | 2 to 4 (≈ 2.51 to 5.03 µM) | 2 to 4 (≈ 2.51 to 5.03 µM) | > 128 | < 1 | 2 to 4 (≈ 2.51 to 5.03 µM) | < 1 | < 1 | < 1 | < 1 | 2 to 4 (≈ 2.51 to 5.03 µM) | 2 to 4 (≈ 2.51 to 5.03 µM) | < 1
5 | O=C(NCCS(=O)(=O)N1CCN(C(=O)N[C@H](C(=O)N[C@H]2Cc3ccc(F)c(C(=O)O)c3OB2O)c2cc(F)c(O)c(O)c2Cl)C1=O)c1ccc(O)cc1 [Example 286, (R)-3-((S)-2-(2-chloro-5-fluoro-3,4-dihydroxyphenyl)-2-(3-((2-(4-hydroxybenzamido)ethyl)sulfonyl)-2-oxoimidazolidine-1-carboxamido)acetamido)-7-fluoro-2-hydroxy-3,4-dihydro-2H-benzo[e][1,2]oxaborinine-8-carboxylic acid] | > 128 | > 128 | > 128 | > 128 | > 128 | > 128 | > 128 | > 128 | > 128 | 8 to 16 (≈ 10.2 to 20.5 µM) | > 128 | > 128 | > 128 | > 128
